Reference: ChEMBL document CHEMBL5678807, “A selective jumonji H3K27 demethylase inhibitor modulates the proinflammatory macrophage response” (Nature, 2012)

Key:
[1] = Prodrug conversion in human primary macrophage lysates assessed as formation of GSK-J1 at 30 uM measured after 1 hr by RP LC-MS/MS analysis; type: ADME, subcellular
[2] = target: T1, Lysine-specific demethylase 4A (Homo sapiens, UniProt O75164); test: Inhibition of human JmjD2a by Alphascreen assay
[3] = target: Lysine-specific demethylase 4C (Homo sapiens, UniProt Q9H3R0); test: Inhibition of human JmjD2c using H3K27(me3) as substrate preincubated for 10 mins followed by substrate addition and measured after 7 mins in presence of alpha-KG by RapidFire Mass Spectrometry
[4] = target: T1, Lysine-specific demethylase 4A; test: Inhibition of human JmjD2a using H3K27(me3) as substrate preincubated for 10 mins followed by substrate addition and measured after 7 mins in presence of alpha-KG by RapidFire Mass Spectrometry
[5] = target: Lysine-specific demethylase 5C (Homo sapiens, UniProt P41229); test: Inhibition of human Jarid1c by MALDI-TOF analysis
[6] = target: Lysine-specific demethylase 6A (Homo sapiens, UniProt O15550); test: Inhibition of human UTX using Biotin-KAPRKQLATKAARK(me3)SAPATGG as substrate by MALDI-TOF analysis
[7] = target: Lysine-specific demethylase 4E (Homo sapiens, UniProt B2RXH2); test: Inhibition of human JmjD2e using H3K27(me3) as substrate preincubated for 10 mins followed by substrate addition and measured after 7 mins in presence of alpha-KG by RapidFire Mass Spectrometry
[8] = Prodrug conversion in human primary macrophage lysates assessed as formation of GSK-J2 at 30 uM measured after 1 hr by RP LC-MS/MS analysis; type: ADME, subcellular

T1 sequence (O75164 whole entry): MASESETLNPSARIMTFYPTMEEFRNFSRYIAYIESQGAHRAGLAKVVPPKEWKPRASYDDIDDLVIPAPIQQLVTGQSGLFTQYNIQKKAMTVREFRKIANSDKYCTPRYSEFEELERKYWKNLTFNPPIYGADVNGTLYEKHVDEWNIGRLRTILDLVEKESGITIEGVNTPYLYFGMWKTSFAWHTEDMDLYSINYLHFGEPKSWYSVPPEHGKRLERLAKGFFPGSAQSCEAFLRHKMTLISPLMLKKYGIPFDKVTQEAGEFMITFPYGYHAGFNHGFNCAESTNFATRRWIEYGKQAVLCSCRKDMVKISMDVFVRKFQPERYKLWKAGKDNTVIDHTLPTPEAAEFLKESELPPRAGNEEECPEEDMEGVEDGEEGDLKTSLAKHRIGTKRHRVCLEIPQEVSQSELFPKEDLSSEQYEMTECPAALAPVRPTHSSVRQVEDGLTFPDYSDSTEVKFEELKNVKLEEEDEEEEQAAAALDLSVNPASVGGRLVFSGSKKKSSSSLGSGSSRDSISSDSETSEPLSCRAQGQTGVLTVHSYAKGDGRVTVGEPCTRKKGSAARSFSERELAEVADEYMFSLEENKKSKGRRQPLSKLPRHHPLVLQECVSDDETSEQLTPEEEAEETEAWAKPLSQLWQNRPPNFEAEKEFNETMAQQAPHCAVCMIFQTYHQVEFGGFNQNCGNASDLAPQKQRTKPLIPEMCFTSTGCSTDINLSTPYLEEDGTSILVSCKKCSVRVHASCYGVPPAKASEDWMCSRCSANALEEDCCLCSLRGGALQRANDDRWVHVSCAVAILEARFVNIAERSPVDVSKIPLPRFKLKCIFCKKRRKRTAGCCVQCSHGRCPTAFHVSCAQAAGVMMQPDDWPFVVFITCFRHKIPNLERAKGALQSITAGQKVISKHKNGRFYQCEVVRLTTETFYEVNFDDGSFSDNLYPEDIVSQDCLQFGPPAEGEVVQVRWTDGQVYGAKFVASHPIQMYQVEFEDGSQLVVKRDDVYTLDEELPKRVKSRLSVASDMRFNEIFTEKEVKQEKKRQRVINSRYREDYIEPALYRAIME
Chain of Lysine-specific demethylase 6A (O15550 whole entry): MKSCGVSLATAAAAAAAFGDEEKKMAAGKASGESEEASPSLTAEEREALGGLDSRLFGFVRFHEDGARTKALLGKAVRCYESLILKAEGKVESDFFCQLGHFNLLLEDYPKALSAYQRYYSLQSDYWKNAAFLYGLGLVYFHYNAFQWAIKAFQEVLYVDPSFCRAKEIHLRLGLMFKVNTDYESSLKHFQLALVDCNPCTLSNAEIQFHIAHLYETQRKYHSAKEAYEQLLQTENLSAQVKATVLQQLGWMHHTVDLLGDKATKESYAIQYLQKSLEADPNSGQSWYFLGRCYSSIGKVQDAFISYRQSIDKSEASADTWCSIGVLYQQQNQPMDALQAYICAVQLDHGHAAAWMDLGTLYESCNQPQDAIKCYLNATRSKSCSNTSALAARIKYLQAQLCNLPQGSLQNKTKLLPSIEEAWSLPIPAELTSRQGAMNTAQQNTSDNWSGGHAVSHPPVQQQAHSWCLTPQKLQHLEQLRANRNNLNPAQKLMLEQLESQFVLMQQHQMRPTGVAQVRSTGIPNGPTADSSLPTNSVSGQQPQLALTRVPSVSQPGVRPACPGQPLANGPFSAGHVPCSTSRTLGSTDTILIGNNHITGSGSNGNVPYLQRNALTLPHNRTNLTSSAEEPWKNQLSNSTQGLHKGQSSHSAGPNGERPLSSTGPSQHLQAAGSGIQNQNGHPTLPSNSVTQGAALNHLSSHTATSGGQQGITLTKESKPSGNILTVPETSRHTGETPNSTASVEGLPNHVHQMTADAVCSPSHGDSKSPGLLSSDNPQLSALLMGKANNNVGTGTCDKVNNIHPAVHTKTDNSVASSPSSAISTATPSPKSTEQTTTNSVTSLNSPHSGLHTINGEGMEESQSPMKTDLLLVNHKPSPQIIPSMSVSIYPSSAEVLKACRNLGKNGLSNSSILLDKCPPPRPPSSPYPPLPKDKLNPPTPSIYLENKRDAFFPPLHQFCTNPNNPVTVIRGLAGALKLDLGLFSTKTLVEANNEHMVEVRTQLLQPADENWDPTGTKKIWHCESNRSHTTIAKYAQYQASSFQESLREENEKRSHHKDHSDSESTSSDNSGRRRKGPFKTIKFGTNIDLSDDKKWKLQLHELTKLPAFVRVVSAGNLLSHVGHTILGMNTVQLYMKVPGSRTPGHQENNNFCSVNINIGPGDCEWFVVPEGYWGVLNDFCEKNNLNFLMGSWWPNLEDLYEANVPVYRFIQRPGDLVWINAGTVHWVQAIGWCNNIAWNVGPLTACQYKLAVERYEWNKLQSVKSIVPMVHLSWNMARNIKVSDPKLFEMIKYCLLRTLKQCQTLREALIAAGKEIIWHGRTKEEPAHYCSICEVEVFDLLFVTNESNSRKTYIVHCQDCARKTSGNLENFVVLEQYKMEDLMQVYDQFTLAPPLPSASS
Chain of Lysine-specific demethylase 4C (Q9H3R0 whole entry): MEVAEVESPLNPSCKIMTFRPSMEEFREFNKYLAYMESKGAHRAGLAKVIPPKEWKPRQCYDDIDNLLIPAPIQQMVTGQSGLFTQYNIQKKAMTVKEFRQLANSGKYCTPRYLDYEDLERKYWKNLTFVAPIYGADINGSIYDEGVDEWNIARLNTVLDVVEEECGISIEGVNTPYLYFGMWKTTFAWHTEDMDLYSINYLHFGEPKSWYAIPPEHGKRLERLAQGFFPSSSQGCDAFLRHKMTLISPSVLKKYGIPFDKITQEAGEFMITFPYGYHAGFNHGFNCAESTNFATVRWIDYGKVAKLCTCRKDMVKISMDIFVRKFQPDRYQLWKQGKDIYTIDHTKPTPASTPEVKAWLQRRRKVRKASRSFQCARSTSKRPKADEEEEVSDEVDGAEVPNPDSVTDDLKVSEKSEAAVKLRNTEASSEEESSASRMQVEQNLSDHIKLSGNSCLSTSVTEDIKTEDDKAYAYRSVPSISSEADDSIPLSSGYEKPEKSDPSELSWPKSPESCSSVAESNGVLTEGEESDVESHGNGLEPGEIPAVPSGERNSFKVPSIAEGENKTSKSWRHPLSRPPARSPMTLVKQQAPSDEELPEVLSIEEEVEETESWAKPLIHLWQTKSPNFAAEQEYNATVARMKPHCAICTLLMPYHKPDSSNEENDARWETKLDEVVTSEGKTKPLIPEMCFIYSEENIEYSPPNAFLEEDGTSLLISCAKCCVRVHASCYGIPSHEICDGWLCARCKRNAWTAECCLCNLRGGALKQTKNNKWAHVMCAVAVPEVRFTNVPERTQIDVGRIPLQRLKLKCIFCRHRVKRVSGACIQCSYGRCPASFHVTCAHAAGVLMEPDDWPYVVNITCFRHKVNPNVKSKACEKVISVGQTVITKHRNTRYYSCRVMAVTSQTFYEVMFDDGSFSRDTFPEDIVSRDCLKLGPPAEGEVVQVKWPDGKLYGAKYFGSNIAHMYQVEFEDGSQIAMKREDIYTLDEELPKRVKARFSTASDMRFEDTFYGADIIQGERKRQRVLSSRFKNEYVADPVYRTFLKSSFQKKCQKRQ
Chain of Lysine-specific demethylase 5C (P41229 whole entry): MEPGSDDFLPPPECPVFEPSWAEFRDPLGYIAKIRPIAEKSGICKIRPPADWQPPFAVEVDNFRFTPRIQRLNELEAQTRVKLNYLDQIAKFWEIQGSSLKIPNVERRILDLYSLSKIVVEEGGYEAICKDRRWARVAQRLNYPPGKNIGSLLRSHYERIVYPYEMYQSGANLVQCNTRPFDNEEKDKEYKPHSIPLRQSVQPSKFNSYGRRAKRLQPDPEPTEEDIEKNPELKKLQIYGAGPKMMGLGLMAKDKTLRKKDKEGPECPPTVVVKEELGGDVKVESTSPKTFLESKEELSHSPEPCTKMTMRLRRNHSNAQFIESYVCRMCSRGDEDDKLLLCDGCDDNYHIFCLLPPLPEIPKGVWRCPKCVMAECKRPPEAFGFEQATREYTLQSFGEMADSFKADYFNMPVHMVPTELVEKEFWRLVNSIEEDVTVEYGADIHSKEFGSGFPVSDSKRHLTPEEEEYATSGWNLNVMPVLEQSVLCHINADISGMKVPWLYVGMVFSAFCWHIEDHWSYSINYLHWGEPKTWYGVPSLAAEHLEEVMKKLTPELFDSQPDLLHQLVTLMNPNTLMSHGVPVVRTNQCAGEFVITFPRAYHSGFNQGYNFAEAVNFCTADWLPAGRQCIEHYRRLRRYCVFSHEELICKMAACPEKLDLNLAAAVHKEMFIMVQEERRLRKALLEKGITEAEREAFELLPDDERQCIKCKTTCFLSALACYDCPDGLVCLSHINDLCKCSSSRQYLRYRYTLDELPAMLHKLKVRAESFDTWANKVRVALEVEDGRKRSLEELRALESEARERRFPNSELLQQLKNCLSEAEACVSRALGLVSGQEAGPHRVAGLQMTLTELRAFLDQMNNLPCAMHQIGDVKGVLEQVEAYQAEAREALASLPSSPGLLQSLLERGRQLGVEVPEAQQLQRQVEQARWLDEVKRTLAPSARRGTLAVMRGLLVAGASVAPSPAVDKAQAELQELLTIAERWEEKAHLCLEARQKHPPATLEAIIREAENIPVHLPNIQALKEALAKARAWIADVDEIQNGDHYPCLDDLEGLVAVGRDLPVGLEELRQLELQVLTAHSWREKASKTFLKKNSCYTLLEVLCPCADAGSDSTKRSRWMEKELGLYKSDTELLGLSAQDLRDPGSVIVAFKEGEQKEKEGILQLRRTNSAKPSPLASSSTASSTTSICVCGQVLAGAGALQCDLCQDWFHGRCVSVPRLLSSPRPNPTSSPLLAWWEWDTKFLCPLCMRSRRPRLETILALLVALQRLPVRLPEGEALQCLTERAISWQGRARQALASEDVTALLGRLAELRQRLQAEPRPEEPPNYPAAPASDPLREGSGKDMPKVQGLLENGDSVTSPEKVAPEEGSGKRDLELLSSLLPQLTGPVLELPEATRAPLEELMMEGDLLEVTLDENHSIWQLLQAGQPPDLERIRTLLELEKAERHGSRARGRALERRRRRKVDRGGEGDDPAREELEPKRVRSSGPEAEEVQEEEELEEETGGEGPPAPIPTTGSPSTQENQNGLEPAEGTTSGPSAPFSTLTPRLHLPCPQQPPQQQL

CCOC(=O)CCNc1cc(N2CCc3ccccc3CC2)nc(-c2ccccn2)n1
Drug metabolism [1]: 11.8 µM

O=C(O)CCNc1cc(N2CCc3ccccc3CC2)nc(-c2ccccn2)n1
IC50 [2]: 44.3 µM
IC50 [3]: > 100 µM
IC50 [4]: > 100 µM
IC50 [5]: > 100 µM
IC50 [6]: 56 µM

O=C(O)CCNc1cc(N2CCc3ccccc3CC2)nc(-c2cccnc2)n1
IC50 [7]: > 100 µM

CCOC(=O)CCNc1cc(N2CCc3ccccc3CC2)nc(-c2cccnc2)n1
Drug metabolism [8]: 17.4 µM
